Experimental data taken from ChEMBL document CHEMBL2406993, “Deconstruction of a nutlin: dissecting the binding determinants of a potent protein-protein interaction inhibitor” (ACS Med Chem Lett, 2013).
Active and inactive are the calls of the source. No cut-off for these calls is given here.

Legend:
Homo sapiens [1] = species: Homo sapiens; assay: Inhibition of Humanized-Xenopus MDM2 (13-119 amino acids) interaction with p53 at 1 to 2.5 mM by SPR analysis
Homo sapiens [2] = species: Homo sapiens; assay: Inhibition of [15N]-labeled humanized-Xenopus MDM2 (13-119 amino acids) interaction with p53 at 2 mM by NMR method
Homo sapiens [3] = species: Homo sapiens; assay: Inhibition of [15N]-labeled humanized-Xenopus MDM2 (13-119 amino acids) interaction with p53 at 1 mM by NMR method
[4] = Inhibition of Humanized-Xenopus MDM2 (13-119 amino acids) interaction with p53 by SPR analysis; parameters: species or system Homo sapiens
Homo sapiens [5] = species: Homo sapiens; assay: Inhibition of Humanized-Xenopus MDM2 (13-119 amino acids) interaction with p53 at 100 uM by SPR analysis
Homo sapiens [6] = species: Homo sapiens; assay: Inhibition of [15N]-labeled humanized-Xenopus MDM2 (13-119 amino acids) interaction with p53 at 0.5 mM by NMR method
Homo sapiens [7] = species: Homo sapiens; assay: Inhibition of [15N]-labeled humanized-Xenopus MDM2 (13-119 amino acids) interaction with p53 at 0.4 mM by NMR method

Compound | inhibition (Homo sapiens [1]) | inhibition (Homo sapiens [3]) | Kd [4] [µM] | also measured
CC1=N[C@@H](c2ccccc2)[C@@H](c2ccccc2)N1 | inactive |  |  | inhibition (Homo sapiens [2]): inactive
c1c[nH]cn1 | inactive | inactive |  | 
CC1=N[C@@](C)(c2ccc(Cl)cc2)[C@@](C)(c2ccc(Cl)cc2)N1C(=O)N1CCN(CCCS(C)(=O)=O)CC1 |  | Active | 14 | 
CCOc1cc(C(C)(C)C)ccc1C1=NCCN1C(=O)N1CCN(CCCS(C)(=O)=O)CC1 |  | inactive |  | inhibition (Homo sapiens [5]): inactive
CCOc1cc(C(C)(C)C)ccc1C1=NC(c2ccccc2)CN1C(=O)N1CCN(CCCS(C)(=O)=O)CC1 (configuration not stated) |  | Active | 1000 | 
CCOc1cc(C(C)(C)C)ccc1C1=NCC(c2ccc(Cl)cc2)N1 (configuration not stated) |  |  |  | inhibition (Homo sapiens [2]): Active; inhibition (Homo sapiens [5]): inactive
CCOc1cc(C(C)(C)C)ccc1C1=N[C@@](C)(c2ccc(Cl)cc2)[C@@](C)(c2ccc(Cl)cc2)N1C(=O)N1CCN(CCCS(C)(=O)=O)CC1 [RO-5045337] |  |  | 0.22 | inhibition (Homo sapiens [6]): Active
CCOc1cc(C(C)(C)C)ccc1-c1ncc[nH]1 | inactive |  |  | inhibition (Homo sapiens [2]): inactive
CC1=N[C@@H](c2ccc(Cl)cc2)[C@@H](c2ccc(Cl)cc2)N1 |  |  | 26 | inhibition (Homo sapiens [7]): Active
Clc1ccccc1 | inactive | inactive |  | 
CCOc1cc(C(C)(C)C)ccc1C1=N[C@@](C)(c2ccc(Cl)cc2)[C@@](C)(c2ccc(Cl)cc2)N1 |  |  | 20 | inhibition (Homo sapiens [7]): Active
